In PMC4051426 (Biochemistry, 2014):

Molecular target: triosephosphate isomerase from chicken muscle (cTIM), loop 6 replacement mutant (L6RM) (Gallus gallus, UniProt P00940, V167P/W168E)
Assay: steady-state kinetics of isomerization
Type: biochemical

Sequence of triosephosphate isomerase from chicken muscle (cTIM), loop 6 replacement mutant (L6RM) (P00940 2-248 V167P/W168E): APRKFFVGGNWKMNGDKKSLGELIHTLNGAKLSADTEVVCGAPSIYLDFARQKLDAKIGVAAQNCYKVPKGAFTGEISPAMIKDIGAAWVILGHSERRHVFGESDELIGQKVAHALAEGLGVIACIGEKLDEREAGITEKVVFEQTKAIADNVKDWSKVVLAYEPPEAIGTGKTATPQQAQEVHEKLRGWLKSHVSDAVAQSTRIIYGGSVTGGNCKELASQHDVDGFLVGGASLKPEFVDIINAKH

Question: For `O=C[C@H](O)COP(=O)(O)O` [GAP, (R)-glyceraldehyde 3-phosphate], which “kcat/Km (M^-1 s^-1)” value is on record?
Answer: The value was 470 M^–1 s^–1 (kcat/Km).
